We go through four compounds from PubChem BioAssay AID2060508 (Molecular Pharmacology Branch, DTP, NCI, 2025).

Structures are written as SMILES.
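Also: spheroids exposed to compounds for seven days; 100% = DMSO vehicle control viability.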

One assay has as its system 454973-116-R2-J3-PDC spheroids, viability, % test/control. In words: Anticancer human tumor 454973-116-R2-J3-PDC patient-derived pancreatic carcinoma cell line growth inhibition [GQUAD]. The conditions noted are these: second compound 3.16 µM; first compound 0.1 µM; hits give low values; spheroids with HUVEC and MSC. In short, it runs like this: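 Viability of tumor cells grown as complex spheroids with endothelial and stromal cells, exposed to drug combinations. Top concentration at or near clinical Cmax (else 10 microM), diluted in half-log increments.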
For orientation: viability, T/C means the result in the treated group divided by that in the control group, in per cent. As to `Nc1ccn(C2OC(CO)C(O)C2(F)F)c(=O)n1` (configuration not stated) + CN(C)c1ccc(Nc2c3ccc(NC(=O)CCN4CCCC4)cc3nc3cc(NC(=O)CCN4CCCC4)ccc23)cc1, the viability, T/C was 14.7%.

With `O=c1[nH]cc(F)c(=O)[nH]1` + CN(C)c1ccc(Nc2c3ccc(NC(=O)CCN4CCCC4)cc3nc3cc(NC(=O)CCN4CCCC4)ccc23)cc1, the viability, T/C was 71.5%.

Still in this assay, the particulars now being: second compound 3.16 µM; first compound 0.316 µM; hits give low values; spheroids with HUVEC and MSC.
Consider `COc1cc(C2c3cc4c(cc3C(OC3OC5COC(C)OC5C(O)C3O)C3COC(=O)C23)OCO4)cc(OC)c1O` (configuration not stated) + CN(C)c1ccc(Nc2c3ccc(NC(=O)CCN4CCCC4)cc3nc3cc(NC(=O)CCN4CCCC4)ccc23)cc1, for which the viability, T/C is 80.5%.

On to `COc1cccc2c1C(=O)c1c(O)c3c(c(O)c1C2=O)CC(O)(C(=O)CO)CC3OC1CC(N)C(O)C(C)O1` (configuration not stated) + CN(C)c1ccc(Nc2c3ccc(NC(=O)CCN4CCCC4)cc3nc3cc(NC(=O)CCN4CCCC4)ccc23)cc1, for which the viability, T/C was 40.2%.

For `Nc1ccn(C2OC(CO)C(O)C2(F)F)c(=O)n1` (configuration not stated) + CN(C)c1ccc(Nc2c3ccc(NC(=O)CCN4CCCC4)cc3nc3cc(NC(=O)CCN4CCCC4)ccc23)cc1, the viability, T/C was 17.4%.

With `O=c1[nH]cc(F)c(=O)[nH]1` + CN(C)c1ccc(Nc2c3ccc(NC(=O)CCN4CCCC4)cc3nc3cc(NC(=O)CCN4CCCC4)ccc23)cc1, the viability, T/C was 95.7%.

The assay is the same for the next values; noted with them: second compound 3.16 µM; first compound 1 µM; hits give low values; spheroids with HUVEC and MSC.
In the case of `COc1cc(C2c3cc4c(cc3C(OC3OC5COC(C)OC5C(O)C3O)C3COC(=O)C23)OCO4)cc(OC)c1O` (configuration not stated) + CN(C)c1ccc(Nc2c3ccc(NC(=O)CCN4CCCC4)cc3nc3cc(NC(=O)CCN4CCCC4)ccc23)cc1, the viability, T/C was 38.5%.

Regarding `COc1cccc2c1C(=O)c1c(O)c3c(c(O)c1C2=O)CC(O)(C(=O)CO)CC3OC1CC(N)C(O)C(C)O1` (configuration not stated) + CN(C)c1ccc(Nc2c3ccc(NC(=O)CCN4CCCC4)cc3nc3cc(NC(=O)CCN4CCCC4)ccc23)cc1, the viability, T/C was 44.2%.

In the case of `Nc1ccn(C2OC(CO)C(O)C2(F)F)c(=O)n1` (configuration not stated) + CN(C)c1ccc(Nc2c3ccc(NC(=O)CCN4CCCC4)cc3nc3cc(NC(=O)CCN4CCCC4)ccc23)cc1, the viability, T/C was 13.3%.

Turning to `O=c1[nH]cc(F)c(=O)[nH]1` + CN(C)c1ccc(Nc2c3ccc(NC(=O)CCN4CCCC4)cc3nc3cc(NC(=O)CCN4CCCC4)ccc23)cc1, the viability, T/C is 59.9%.

Still in this assay, the particulars now being: second compound 3.16 µM; first compound 3.16 µM; hits give low values; spheroids with HUVEC and MSC.
With `COc1cc(C2c3cc4c(cc3C(OC3OC5COC(C)OC5C(O)C3O)C3COC(=O)C23)OCO4)cc(OC)c1O` (configuration not stated) + CN(C)c1ccc(Nc2c3ccc(NC(=O)CCN4CCCC4)cc3nc3cc(NC(=O)CCN4CCCC4)ccc23)cc1, the viability, T/C was 31.6%.

On to `COc1cccc2c1C(=O)c1c(O)c3c(c(O)c1C2=O)CC(O)(C(=O)CO)CC3OC1CC(N)C(O)C(C)O1` (configuration not stated) + CN(C)c1ccc(Nc2c3ccc(NC(=O)CCN4CCCC4)cc3nc3cc(NC(=O)CCN4CCCC4)ccc23)cc1, for which the viability, T/C was 27.9%.

On to `Nc1ccn(C2OC(CO)C(O)C2(F)F)c(=O)n1` (configuration not stated) + CN(C)c1ccc(Nc2c3ccc(NC(=O)CCN4CCCC4)cc3nc3cc(NC(=O)CCN4CCCC4)ccc23)cc1, for which the viability, T/C is 14.6%.

For the compound `O=c1[nH]cc(F)c(=O)[nH]1` + CN(C)c1ccc(Nc2c3ccc(NC(=O)CCN4CCCC4)cc3nc3cc(NC(=O)CCN4CCCC4)ccc23)cc1, the viability, T/C was 32.2%.

Staying with this assay, now noted: second compound 3.16 µM; first compound 10 µM; hits give low values; spheroids with HUVEC and MSC.
Take `COc1cc(C2c3cc4c(cc3C(OC3OC5COC(C)OC5C(O)C3O)C3COC(=O)C23)OCO4)cc(OC)c1O` (configuration not stated) + CN(C)c1ccc(Nc2c3ccc(NC(=O)CCN4CCCC4)cc3nc3cc(NC(=O)CCN4CCCC4)ccc23)cc1: the viability, T/C is 16.3%.

Regarding `COc1cccc2c1C(=O)c1c(O)c3c(c(O)c1C2=O)CC(O)(C(=O)CO)CC3OC1CC(N)C(O)C(C)O1` (configuration not stated) + CN(C)c1ccc(Nc2c3ccc(NC(=O)CCN4CCCC4)cc3nc3cc(NC(=O)CCN4CCCC4)ccc23)cc1, the viability, T/C was 2.27%.

Consider `Nc1ccn(C2OC(CO)C(O)C2(F)F)c(=O)n1` (configuration not stated) + CN(C)c1ccc(Nc2c3ccc(NC(=O)CCN4CCCC4)cc3nc3cc(NC(=O)CCN4CCCC4)ccc23)cc1, for which the viability, T/C is 14.7%.

As to `O=c1[nH]cc(F)c(=O)[nH]1` + CN(C)c1ccc(Nc2c3ccc(NC(=O)CCN4CCCC4)cc3nc3cc(NC(=O)CCN4CCCC4)ccc23)cc1, the viability, T/C is 37.6%.

The assay is the same for the next values; noted with them: second compound 10 µM; first compound 0.0316 µM; hits give low values; spheroids with HUVEC and MSC.
With `COc1cc(C2c3cc4c(cc3C(OC3OC5COC(C)OC5C(O)C3O)C3COC(=O)C23)OCO4)cc(OC)c1O` (configuration not stated) + CN(C)c1ccc(Nc2c3ccc(NC(=O)CCN4CCCC4)cc3nc3cc(NC(=O)CCN4CCCC4)ccc23)cc1, the viability, T/C is 79.2%.

In the case of `COc1cccc2c1C(=O)c1c(O)c3c(c(O)c1C2=O)CC(O)(C(=O)CO)CC3OC1CC(N)C(O)C(C)O1` (configuration not stated) + CN(C)c1ccc(Nc2c3ccc(NC(=O)CCN4CCCC4)cc3nc3cc(NC(=O)CCN4CCCC4)ccc23)cc1, the viability, T/C was 79.1%.

`Nc1ccn(C2OC(CO)C(O)C2(F)F)c(=O)n1` (configuration not stated) + CN(C)c1ccc(Nc2c3ccc(NC(=O)CCN4CCCC4)cc3nc3cc(NC(=O)CCN4CCCC4)ccc23)cc1: the viability, T/C is 22.8%.

On to `O=c1[nH]cc(F)c(=O)[nH]1` + CN(C)c1ccc(Nc2c3ccc(NC(=O)CCN4CCCC4)cc3nc3cc(NC(=O)CCN4CCCC4)ccc23)cc1, for which the viability, T/C was 78.9%.

Staying with this assay, now noted: second compound 10 µM; first compound 0.1 µM; hits give low values; spheroids with HUVEC and MSC.
On to `COc1cc(C2c3cc4c(cc3C(OC3OC5COC(C)OC5C(O)C3O)C3COC(=O)C23)OCO4)cc(OC)c1O` (configuration not stated) + CN(C)c1ccc(Nc2c3ccc(NC(=O)CCN4CCCC4)cc3nc3cc(NC(=O)CCN4CCCC4)ccc23)cc1, for which the viability, T/C is 71.3%.

Take `COc1cccc2c1C(=O)c1c(O)c3c(c(O)c1C2=O)CC(O)(C(=O)CO)CC3OC1CC(N)C(O)C(C)O1` (configuration not stated) + CN(C)c1ccc(Nc2c3ccc(NC(=O)CCN4CCCC4)cc3nc3cc(NC(=O)CCN4CCCC4)ccc23)cc1: the viability, T/C was 61.1%.

As to `Nc1ccn(C2OC(CO)C(O)C2(F)F)c(=O)n1` (configuration not stated) + CN(C)c1ccc(Nc2c3ccc(NC(=O)CCN4CCCC4)cc3nc3cc(NC(=O)CCN4CCCC4)ccc23)cc1, the viability, T/C was 14.2%.

For the compound `O=c1[nH]cc(F)c(=O)[nH]1` + CN(C)c1ccc(Nc2c3ccc(NC(=O)CCN4CCCC4)cc3nc3cc(NC(=O)CCN4CCCC4)ccc23)cc1, the viability, T/C was 74.2%.

Staying with this assay, now noted: second compound 10 µM; first compound 0.316 µM; hits give low values; spheroids with HUVEC and MSC.
`COc1cc(C2c3cc4c(cc3C(OC3OC5COC(C)OC5C(O)C3O)C3COC(=O)C23)OCO4)cc(OC)c1O` (configuration not stated) + CN(C)c1ccc(Nc2c3ccc(NC(=O)CCN4CCCC4)cc3nc3cc(NC(=O)CCN4CCCC4)ccc23)cc1: the viability, T/C is 66.2%.

As to `COc1cccc2c1C(=O)c1c(O)c3c(c(O)c1C2=O)CC(O)(C(=O)CO)CC3OC1CC(N)C(O)C(C)O1` (configuration not stated) + CN(C)c1ccc(Nc2c3ccc(NC(=O)CCN4CCCC4)cc3nc3cc(NC(=O)CCN4CCCC4)ccc23)cc1, the viability, T/C is 44.1%.

As to `Nc1ccn(C2OC(CO)C(O)C2(F)F)c(=O)n1` (configuration not stated) + CN(C)c1ccc(Nc2c3ccc(NC(=O)CCN4CCCC4)cc3nc3cc(NC(=O)CCN4CCCC4)ccc23)cc1, the viability, T/C was 16.9%.

With `O=c1[nH]cc(F)c(=O)[nH]1` + CN(C)c1ccc(Nc2c3ccc(NC(=O)CCN4CCCC4)cc3nc3cc(NC(=O)CCN4CCCC4)ccc23)cc1, the viability, T/C is 78%.

The same assay, now with this note: second compound 10 µM; first compound 1 µM; hits give low values; spheroids with HUVEC and MSC.
For `COc1cc(C2c3cc4c(cc3C(OC3OC5COC(C)OC5C(O)C3O)C3COC(=O)C23)OCO4)cc(OC)c1O` (configuration not stated) + CN(C)c1ccc(Nc2c3ccc(NC(=O)CCN4CCCC4)cc3nc3cc(NC(=O)CCN4CCCC4)ccc23)cc1, the viability, T/C was 45.5%.

For `COc1cccc2c1C(=O)c1c(O)c3c(c(O)c1C2=O)CC(O)(C(=O)CO)CC3OC1CC(N)C(O)C(C)O1` (configuration not stated) + CN(C)c1ccc(Nc2c3ccc(NC(=O)CCN4CCCC4)cc3nc3cc(NC(=O)CCN4CCCC4)ccc23)cc1, the viability, T/C was 47.2%.

With `Nc1ccn(C2OC(CO)C(O)C2(F)F)c(=O)n1` (configuration not stated) + CN(C)c1ccc(Nc2c3ccc(NC(=O)CCN4CCCC4)cc3nc3cc(NC(=O)CCN4CCCC4)ccc23)cc1, the viability, T/C was 17.6%.

For the compound `O=c1[nH]cc(F)c(=O)[nH]1` + CN(C)c1ccc(Nc2c3ccc(NC(=O)CCN4CCCC4)cc3nc3cc(NC(=O)CCN4CCCC4)ccc23)cc1, the viability, T/C was 64.8%.

The assay is the same for the next values; noted with them: second compound 10 µM; first compound 3.16 µM; hits give low values; spheroids with HUVEC and MSC.
For the compound `COc1cc(C2c3cc4c(cc3C(OC3OC5COC(C)OC5C(O)C3O)C3COC(=O)C23)OCO4)cc(OC)c1O` (configuration not stated) + CN(C)c1ccc(Nc2c3ccc(NC(=O)CCN4CCCC4)cc3nc3cc(NC(=O)CCN4CCCC4)ccc23)cc1, the viability, T/C was 31.8%.

On to `COc1cccc2c1C(=O)c1c(O)c3c(c(O)c1C2=O)CC(O)(C(=O)CO)CC3OC1CC(N)C(O)C(C)O1` (configuration not stated) + CN(C)c1ccc(Nc2c3ccc(NC(=O)CCN4CCCC4)cc3nc3cc(NC(=O)CCN4CCCC4)ccc23)cc1, for which the viability, T/C was 31.1%.

For the compound `Nc1ccn(C2OC(CO)C(O)C2(F)F)c(=O)n1` (configuration not stated) + CN(C)c1ccc(Nc2c3ccc(NC(=O)CCN4CCCC4)cc3nc3cc(NC(=O)CCN4CCCC4)ccc23)cc1, the viability, T/C is 19.7%.

As to `O=c1[nH]cc(F)c(=O)[nH]1` + CN(C)c1ccc(Nc2c3ccc(NC(=O)CCN4CCCC4)cc3nc3cc(NC(=O)CCN4CCCC4)ccc23)cc1, the viability, T/C is 38.7%.

Still in this assay, the particulars now being: second compound 10 µM; first compound 10 µM; hits give low values; spheroids with HUVEC and MSC.
With `COc1cc(C2c3cc4c(cc3C(OC3OC5COC(C)OC5C(O)C3O)C3COC(=O)C23)OCO4)cc(OC)c1O` (configuration not stated) + CN(C)c1ccc(Nc2c3ccc(NC(=O)CCN4CCCC4)cc3nc3cc(NC(=O)CCN4CCCC4)ccc23)cc1, the viability, T/C was 20.9%.

As for `COc1cccc2c1C(=O)c1c(O)c3c(c(O)c1C2=O)CC(O)(C(=O)CO)CC3OC1CC(N)C(O)C(C)O1` (configuration not stated) + CN(C)c1ccc(Nc2c3ccc(NC(=O)CCN4CCCC4)cc3nc3cc(NC(=O)CCN4CCCC4)ccc23)cc1, the viability, T/C was 3.01%.

Turning to `Nc1ccn(C2OC(CO)C(O)C2(F)F)c(=O)n1` (configuration not stated) + CN(C)c1ccc(Nc2c3ccc(NC(=O)CCN4CCCC4)cc3nc3cc(NC(=O)CCN4CCCC4)ccc23)cc1, the viability, T/C is 19.8%.

For the compound `O=c1[nH]cc(F)c(=O)[nH]1` + CN(C)c1ccc(Nc2c3ccc(NC(=O)CCN4CCCC4)cc3nc3cc(NC(=O)CCN4CCCC4)ccc23)cc1, the viability, T/C is 36%.
